Measured values reported in a melting point compilation (Tetko et al.).

SMILES	melting point [°C]
Ic1ccc(OCc2ccccc2)cc1	62
CN(C)c1ccc(N=C(C#N)c2ccc(C(C#N)=Nc3ccc(N(C)C)cc3)cc2)cc1	240
CC(=NC#N)N(C)Cc1ccc(Cl)nc1	98.9
Oc1ccc(O)c(Cl)c1	108
COc1ccc(Cl)c([N+](=O)[O-])c1	44
Nc1cccc(Cl)c1C(=O)O	159
Brc1cccc(Cn2ccnc2)c1	62 to 70
CN(N)c1c(N(C)N)c(=O)c1=O	201 to 202
O=[N+]([O-])c1cccc2cc[nH]c12	95 to 98
O=[N+]([O-])CC(O)C(Cl)(Cl)Cl (stereo not given)	45.5
N#C/C(=N/Nc1ccc(Cl)cc1)c1nc(-c2ccccc2)cs1	168
O=S(=O)(Cl)c1cc(OCC(F)(F)F)ccc1OCC(F)(F)F	47 to 50
NC(=O)N1c2ccccc2C=Cc2ccccc21	190
COc1ccc(S(=O)(=O)Cl)cc1	40 to 42
O=C1NC(=O)c2cc([N+](=O)[O-])ccc21	206
Nc1c(F)cc(F)cc1F	35
NNc1cc(C(F)(F)F)cc(C(F)(F)F)c1	82
Cc1c2ccccc2c(C)c2c1ccc1ccccc12	122
Cc1c2ccccc2cc2ccc3ccccc3c12	138
Cc1ccc(O[Si]23OCCN(CCO2)CCO3)cc1	188
O=C(OC(=O)C(Cl)Cl)C(Cl)Cl	29
O=C1C=C2C(=CCOC2O)O1 (stereo not given)	111
Clc1ccc(-n2cccc2)cc1	88 to 91
O=[N+]([O-])c1ncccc1Cl	91
O=C1Cc2ccccc2C(=O)Cc2ccccc21	207 to 209
CCNc1nc(NC(C)C)nc(SC)n1	88
Nc1ccccc1/C=C/c1cc(/C=C/c2cccc([N+](=O)[O-])c2)c([N+](=O)[O-])cc1[N+](=O)[O-]	250

SMILES	melting point [°C]
Clc1cc2oc3c(Cl)c(Cl)ccc3c2c(Cl)c1Cl	206
O=c1oc2ccccc2c(O)c1C(CC(O)c1ccc(-c2ccc(Br)cc2)cc1)c1ccccc1 (stereo not given)	199
Oc1cc(C(F)(F)F)nc2cc(Cl)cc(Cl)c12	230
C[C@]12CCC(=O)C[C@H]1CC[C@H]1[C@H]3CCC(=O)[C@@]3(C)CC[C@@H]12	179 to 180
O=C(c1cccs1)c1nn2c(nc(=O)c3ccccc32)s1	236
NC(=S)c1cccc(F)c1	110
N#Cc1ccc2cccc(O)c2n1	131 to 136
O=C=Nc1cc(Cl)ccc1Cl	30
COc1cc2c(cc1O)[C@H](C)N(C)CC2	182
O=C(Cl)c1ccc(-c2cccs2)s1	73.3 to 74.4
CC12CCC3C(CCC4CC(O)(C#CCl)CCC43C)C1CCC2O (stereo not given)	120
NNC(=S)Nc1cccc(Cl)c1	132
O=C1C=C(NCc2ccc([N+](=O)[O-])cc2)C(=O)c2ccccc21	235
CC(C)C12C=CC(C)(CC1)OO2 (stereo not given)	3.3
O=C1c2ccccc2-c2ccc(Cl)cc21	126
Cc1cc(Cl)c(N=C=O)cc1N=C=O	62
Oc1ccccc1/C=C/c1ccccc1	147
Nc1ccc2c(c1)OCCCO2	81 to 82
O=[N+]([O-])c1ccc(Cl)nc1Cl	64
FC(F)(F)c1ccc(N2CCCNCC2)nc1	50 to 53
O=c1[nH]ncc(Cl)c1Cl	202
N#Cc1ccc(Cn2cncn2)cc1	69 to 72
O=S(=O)(Cl)c1ccccc1F	30
Nc1cccc2cc(O)ccc12	191
O=C1C(c2ccccc2)=C(c2ccccc2)c2ccccc21	151 to 155
O=[N+]([O-])c1ccc(Cl)cc1Nc1ccccc1	110 to 114

Results, then the compound that gave them:

melting point [°C]	SMILES
-20	CC(C)COC(=O)CCCCC(=O)OCC(C)C
158	NS(=O)(=O)c1cc2c(s1)C(O)CCS2 (stereo not given)
125 to 128	COC(=O)c1sccc1Oc1ccc(Cl)cc1[N+](=O)[O-]
171	O=C(O)c1cc(Br)c(Br)o1
273 to 275	O=C(O)[C@@H]1Cc2ccc(O)cc2CN1
22	C#CCCCCCCCCCCCCCCC
137 to 139	CCOC(=O)c1cc(-c2cccs2)n[nH]1
120 to 122	C/C=C/C1Nn2c(nnc2-c2cccnc2)S1 (stereo not given)
124	COc1ccc(C(=O)NCc2cccnc2)cc1C(=O)NCc1cccnc1
48 to 55	C=Cc1ccc(OCc2ccccc2)c(OC)c1
159	Cc1ccc(S(=O)(=O)N2CCCN(S(=O)(=O)c3ccc(C)cc3)CC(=O)NCCCNC(=O)C2)cc1
235	CC(=O)c1cc(C(C)=O)c(N)cc1N
216	COc1cc(NCc2ccc3nc(N)nc(N)c3c2C)cc(OC)c1OC
197	CC(=O)NC(CCC(N)=O)C(=O)O (stereo not given)
152	CC(C)(C)Oc1ccc(O)cc1
103 to 105	NNC(=O)c1ccccc1OC(F)(F)F
9	CC/C=C/C(=O)O
23	CCCCCCCCCCC=CCCCCCCCC(=O)O
138	COc1cc(C(=O)NS(=O)(=O)c2ccccc2C)ccc1Cc1cn(C)c2ccc(NC(=O)OC3CCCC3)cc12
253 to 254	Nn1cnc2c(c(Br)nn2C2CCCCC2)c1=O
123 to 125	Cc1nn(-c2ccccc2)nc1C(=O)NN
60	C#CCOc1ccc(Cc2ccc(O)cc2)cc1
132	CC(=O)CC(=O)Nc1ccc(Cl)cc1
118 to 121	NNC(=O)COc1ccccc1CSc1ccc(Cl)cc1
37 to 39	O=C(Cl)c1ccccc1Oc1ccccc1
297	C[C@@H]1C(=O)[C@]23C[C@H]1CC[C@H]2[C@@]1(CCC[C@@]2(C)COC(=O)[C@H]21)COC3=O

melting point [°C]	SMILES
138 to 142	Cc1cc(O)c(C(=O)c2ccccc2)cc1Cl
215	COc1cnc(NS(=O)(=O)c2ccc(N)cc2)nc1
84	CC(C)(CCC(=O)O)C(=O)O
84	C#CCOc1ccc(N)cc1C(=O)NCCCC
55	COC1=CC(=O)C2(C)CCC1C2(C)C (stereo not given)
193 to 194	CCC(C)/N=C(\C)c1c(O)c2ccccc2n(-c2ccccc2)c1=O (stereo not given)
164 to 167	CCOC(=O)CCC(C)C1CCC2C3C(O)C(Br)C4CC(OC(C)=O)CCC4(C)C3CC(OC(C)=O)C12C (stereo not given)
100 to 102	CCSC(SCC)=C1CCCC(=C(SCC)SCC)C1=C(C#N)C#N
190	O=[N+]([O-])c1cccc(S(=O)(=O)NCCNS(=O)(=O)c2cccc([N+](=O)[O-])c2)c1
169 to 171	CC(C)(CCCC(C)(C)C(=O)O)C(=O)O
101	Cc1cc(C)cc(CC(=O)O)c1
111 to 114	O=C(O)Cc1c(F)ccc(F)c1F
69	COC(=O)c1ccc(I)cc1O
84 to 86	COc1cc(I)c(OC)cc1C
55.5 to 74	CCCCCCCCCCOc1ccc(/N=N/c2ccc(CCCC)cc2)cc1
124 to 128	CC(=O)Oc1cn(C(C)=O)c2ccc(Br)cc12
147	COC(=O)c1ccnc(N)c1
226	CCCC1OC2CC3C4CCC5=CC(=O)C=CC5(C)C4C(O)CC3(C)C2(C(=O)CO)O1 (stereo not given)
85	CNc1nc(NC(C)C)nc(SC)n1
47 to 50	C[Si](C)(C)OS(=O)(=O)O[Si](C)(C)C
14	CSCC(=O)O
71 to 72	CC1(C)C2CCC(O2)C(Cl)C1O (stereo not given)
58	CCOC(=O)C(C(=O)OCC)=C(C(=O)OCC)C(=O)OCC
124	COc1ccc(C(=O)C2=NOC3C(=O)N(c4ccc(Br)cc4)C(=O)C23)cc1 (stereo not given)
64 to 66	CCOC(=O)C1CCN(c2ncnc3ccsc23)CC1
-22	CCCCCCCCCCC1CCCC1

melting point [°C]	SMILES
215 to 217	O=C(O)c1cccc(N2CCCC2)c1
88 to 93	COC(=O)CC(=O)c1cncc(Br)c1
193	CC12CCC(CCC1=O)C2(C)C (stereo not given)
97	O=C1c2ccccc2CC2CCCCN12 (stereo not given)
199 to 201	CC1(c2ccccc2)NC(=O)NC1=O (stereo not given)
122	CC(=O)C1=Cc2ccccc2C1
-90	CC(C)CC(C)O (stereo not given)
140	CC(C)(O)CCSc1ccc(S(N)(=O)=O)cc1
-127	CC1C=CCC1 (stereo not given)
63 to 66	CC1(C)CC(=O)C2=C(C1)OC1CCCCC21 (stereo not given)
69	OCCC1CCCCN1 (stereo not given)
120 to 123	Cn1nc(C2CC2)cc1N
69	O=C(O)C(O)C(F)(F)F (stereo not given)
-98	CCCCC/C=C\Br
118	O=C(c1ccc2c3c(cccc13)CC2)C(Br)c1ccccc1 (stereo not given)
248	O=c1c(O)c(-c2ccc(O)c(O)c2)oc2cc(OC3OC(CO)C(O)C(O)C3O)cc(O)c12 (stereo not given)
-73.5	CCCCCOC=O
160 to 166	CCOC(=O)C1=C(C)OC(N)=C(C#N)C1c1ccc2c(c1)CCO2 (stereo not given)
112	OCC#CC#CCO
150 to 153	CCSc1sc(C#N)c2c1C(=O)CC(C)(C)C2
116	CCCCC(=O)N(Cc1ccc(-c2ccccc2-c2nnn[nH]2)cc1)C(C(=O)O)C(C)C (stereo not given)
70	CC(O)c1ccc(N)cc1 (stereo not given)
100	O=C(C=NNc1ccccc1)c1ccc(C(=O)C=NNc2ccccc2)c([N+](=O)[O-])c1
187	O=C1C=C(O)CC(c2ccccc2)C1 (stereo not given)
130	CC(=O)c1ccc2c(c1)Cc1ccccc1-2
